According to patent US12241085B2, “Human pluripotent stem cell derived neurodegenerative disease models on a microfluidic chip” (priority 2018, dated 2025):

What was measured:
[1] = as stated for the marketed drug; cited from earlier work
[2] = test system: iBMECs co-cultured with primary human astrocytes and pericytes; experiment: TNFα perfusion of blood compartment of organ-chip with iBMECs, astrocytes and pericytes; format: cell-based; conditions: 10 or 100 ng/ml overnight in blood compartment
Text: While astrocytes and iBMECs can remain in their respective channels, astrocytes processes protruded through the pores to form direct cell-to-cell contact with the iBMECs, mimicking the astrocyte-end-feet observed in vivo.
In order to quantify the percentage of vascular surface covered with astrocyte protrusions (end-feet like structures), the vascular surface of the are washed in DMEM (without FBS) and stained with the fluorescently labeled wheat germ agglutinin (WGA-647 Invitrogen), a […] able to bind to the vascular glycocalyx (DOI: 10.1002jemt.22602). After 15 minutes at room temperature, chips were rinsed twice with fresh DMEM, fixed in 2% PFA for 20 minutes at room temperature and stained for the astrocyte marker GFAP (Abcam). Following incubation with the anti-mouse secondary antibody (Invitrogen, Alexa Fluor 488) and HOECHS (Abcam) chips were washed in PBS and imaged via confocal microscopy (Zeiss LSM850).
The area underneath the porous membrane was localized using the WGA-647 signal (that stained the whole endothelial surface) and the nuclear fluorescence signal (HOECHST) of endothelial cells. Then, five random areas of each chip were imaged using the GFAP fluorescent (488) signal using a 10× objective (Zeiss). ImageJ software was used to subtract background and then convert the digital signal detected in the GFAP channel into a binary image. Finally, percentage of signal coverage was computed from the binary image as the ratio of bright pixels to the total number of pixels in the image. Image processing and quantification was performed with an automatic macro compiled in ImageJ in order to ensure unbiased signal measurements. Numerical values were collected and statistically analyzed using Graphpad Prism V7.

Compound: CC[C@@H](C(N)=O)N1CCCC1=O [Levetiracetam]
- known BBB permeability [1]: can efficiently penetrate the BBB

Compound: TNFα
- blood-to-brain leakage of dextran after vascular stimulation [2]: increase in blood-to-brain leakage
- astrocyte end-feet-like structures covering the vascular surface ([2]; vs control): decrease in end-feet-like structures
- astrocyte morphology ([2]; vs control): change in astrocyte morphology
